The text below walks through data of patent US8889153B2, “Combination of immunomodulator and anti-pathogenic agent” (priority 2008, dated 2014).

The test system of one data set is Herpes sp. Kind of data set: Patients with recurrent herpetic lesions (cutaneous and genital), symptom recurrence. It is filed as in vivo, Herpes virus (host: human patients). As to conditions: Acyclovir alone, oral, 3 daily doses of 200 mg, 10 days.
In another data set the test system is Candida sp. As to conditions: 20 HIV/AIDS patients per group, Fluconazole 400 mg/day × 5 days oral, Immunomodulator 10 mg/day × 5 days i.m.
In a further data set the test system is Plasmodium chabaudi. Kind of data set: Experimental Plasmodium chabaudi infection, survival and parasitemia. The data set is classed as in vivo, Plasmodium chabaudi (host: C57BL/6 mice). As to conditions: for Survival/Number of animals: 21 days observation.
A further data set relates to M. tuberculosis-Erdman. Also noted: species or system Mycobacterium tuberculosis (host: C57BL/6 mice). As to conditions: mouse, in vivo.
Data set [1] concerns L. monocytogenes. As to conditions: experimental animals; PI0305373-3, U.S. Ser. No. 10/978,683, EPA 0426250.3.2405; cited from earlier work.
For data set [2], the system named is L. monocytogenes. Kind of data set: Experimental L. monocytogenes infection, lethal dose, survivors at 30 days. It is filed as in vivo, Listeria monocytogenes (host: BALB/c mice). As to conditions: BALB/c mice, n = 10 per group, 2×10^6 L. monocytogenes i.p.; Immunomodulator 100 mg/kg single dose i.p.; Rifampicine 2 mg/kg and Gentamicin 2 mg/kg × 5 days.
For data set [3], the system named is TH-1 and TH-2 types cytokines (IL-2, IFN-gamma, IL-4, and IL-10). Kind of data set: Cytokine dosage (sandwich-ELISA, Con-A stimulated spleen culture supernatant) in experimental L. monocytogenes infection. It is filed as in vivo, BALB/c mice.
In a further data set the test system is HCV subtype I-b. Kind of data set: Clinical trial in hepatitis C patients, laboratorial parameters. As to conditions: two patients (A and D) of 5; Immunomodulator 25 mg weekly i.m., 12 months; no treatment interruption.
Setting [4] is: Group D: Chloroquine 5 mg/kg single i.p. dose.
[5] abbreviates: Group E: Chloroquine 2 mg/kg single i.p. dose.
Setting [6] is: Control (non-infected) BALB/c mice, Immunomodulator 5 mg/kg/day i.p. 7 days.
Where [7] appears, read: Infected 48 h (2×10^4 L. monocytogenes i.p.), Immunomodulator 5 mg/kg/day i.p. 7 days prior to inoculation.
[8] abbreviates: Infected 72 h (2×10^4 L. monocytogenes i.p.), Immunomodulator 5 mg/kg/day i.p. 7 days prior to inoculation.
Where [9] appears, read: Group G: Immunomodulator 100 mg/kg i.p. single dose.

Where “and” joins values, the source holds several entries; their conditions need not be identical. Equal entries are not always repeated.

Turning to `Nc1nc(=O)c2ncn(COCCO)c2[nH]1` [Acyclovir, 2-amino-9-[(2-hydroxyethoxy)methyl]-3,9-dihydro-6H-purin-6-one], in the data set with Herpes sp (first stage, 30 patients), the “average recurrence period of time of the disease symptoms” value stood at 2 months. Besides, in the data set on Herpes sp (second stage, 15 patients), the “average recurrence period of symptoms” value amounted to 2 months.

For `OC(Cn1cncn1)(Cn1cncn1)c1ccc(F)cc1F` [Antifungal], the “% Respondents” value with Candida sp is on record as 100%. Further, the “Symptoms Average recurrence period” value in the data set with Candida sp (six months follow-up) is recorded as 45 days.

With `CCN(CC)CCCC(C)Nc1ccnc2cc(Cl)ccc12` (stereo not drawn) [Chloroquine, N′-(7-chloroquinolin-4-yl)-N,N-diethyl-pentane-1,4-Diamine], the Survival/Number of animals is 6-6 in the data set on Plasmodium chabaudi (Group B: Chloroquine 15 mg/kg single i.p. dose), 0-6 in the data set with Plasmodium chabaudi (setting [4]) and 0-6 with Plasmodium chabaudi (setting [5]). The “Parasitemia (%) ± Standart deviation (SD)” value is 17 ± 0.7 (day 5) % with Plasmodium chabaudi (Group B: Chloroquine 15 mg/kg single i.p. dose, day 5); 8 ± 1.2 (day 21% in the data set on Plasmodium chabaudi (Group B: Chloroquine 15 mg/kg single i.p. dose, day 21); 65 ± 0.9 (day 5) % in the data set with Plasmodium chabaudi (Group D: Chloroquine 5 mg/kg single i.p. dose, day 5); 89 ± 1.3 (day 5) % with Plasmodium chabaudi (Group E: Chloroquine 2 mg/kg single i.p. dose, day 5). The “increase in survival rate compared to the control groups” value in the data set with Plasmodium chabaudi (Group D: Chloroquine 5 mg/kg) was 2 days. In addition, the Day of death with Plasmodium chabaudi (setting [4]) was determined as 10 days; with Plasmodium chabaudi (setting [5]) it was 8 days. The “difference in the survival rate to the control groups” value with Plasmodium chabaudi (Group E: Chloroquine 2 mg/kg) is given as “no significant difference”.

On to `NNC(=O)c1ccncc1` [INH, pyridine-4-carbohydrazide, reference compound], for which, in the data set with M. tuberculosis-Erdman, the “Bacillary load - Lung + Standard Deviation (SD)” value stood at 3.52 ± 0.65 and the “Bacillary load - Spleen + Standard Deviation (SD)” value is 4.82 ± 0.62.

Take “proteic aggregate of ammonium and magnesium phospholinoleate-palmitoleate anhydride [Immunomodulator]”: the “protection against infection by lethal dose of L. monocytogenes” value in the data set on L. monocytogenes [1] is recorded as “partial protection”. Moreover, in the data set on L. monocytogenes [2], the “% surviving animals - 30 days” value was found to be 30% and the “Number surviving animals - 30 days” value was 3. In data set [3] (setting [6]), the IFN-γ was 1012 ± 41 pg/mL, the Il-2 amounted to 167 ± 11 pg/mL, the Il-4 turned out to be 63 ± 19 pg/mL and the Il-10 is 227 ± 37 pg/mL. Moreover, in data set [3] (setting [7]), the IFN-γ is on record as 1691 ± 62 pg/mL, the Il-2 is on record as 206 ± 31 pg/mL, the Il-4 amounted to 75 ± 18 pg/mL and the Il-10 was determined as 224 ± 17 pg/mL. In data set [3] (setting [8]), this compound had an IFN-γ of 1884 ± 70 pg/mL, an Il-2 of 248 ± 34 pg/mL, an Il-4 of 73 ± 11 pg/mL and an Il-10 of 221 ± 37 pg/mL. The “tolerance at the site of injection” value in the data set on HCV subtype I-b is “mild pain and discomfort at the site of injection”. In the data set on M. tuberculosis-Erdman, the “Bacillary load - Lung + Standard Deviation (SD)” value was 5.42 ± 0.59 and 4.85 ± 0.46; the “Bacillary load - Spleen + Standard Deviation (SD)” value is 5.25 ± 0.61 and 4.93 ± 0.47. The same compound had a Day of death with Plasmodium chabaudi (Group F: Immunomodulator 5 mg/kg × 5 days) of 11 days. In the data set with Plasmodium chabaudi (Group F: Immunomodulator 5 mg/kg × 5 days, start 1 day after infection), the Survival/Number of animals was 0-6. In addition, the “Parasitemia (%) ± Standart deviation (SD)” value in the data set on Plasmodium chabaudi (Group F: Immunomodulator 5 mg/kg × 5 days, day 5) is 54 ± 0.8 (day 5) %. In the data set with Plasmodium chabaudi (setting [9]), the Day of death amounted to 12 days and the Survival/Number of animals was 0-6. Besides, the “Parasitemia (%) ± Standart deviation (SD)” value with Plasmodium chabaudi (Group G: Immunomodulator 100 mg/kg i.p. single dose, day 5) is given as 52 ± 0.9 (day 5) %. Besides, in the data set on Plasmodium chabaudi (Groups F and G: Immunomodulator 5 mg/kg × 5 days and 100 mg/kg single dose), the “increase in survival rate in relation to the control animals” value was 3 to 4 days.
